Active and inactive are the calls of the source.
How the values were obtained:
[1] = inhibition of ADAM10 peptide cleavage – biochemical, FRET peptide substrate, recombinant human ADAM10, selectivity assay for ADAM17 exosite inhibitor project, dose response (AID 743259);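 also: ADAM10 enzyme cleaving a FRET peptide substrate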
[2] = microbe, parasite or virus in culture; assay type: functional; details: Mycobacterium tuberculosis
[3] = biological target: Disintegrin and metalloproteinase domain-containing protein 17 (Homo sapiens, UniProt P78536); assay: exosite inhibitors of ADAM17, dose response, biochemical (AID 743260)
Chain of Disintegrin and metalloproteinase domain-containing protein 17 (P78536 whole entry, the tested form may be a part): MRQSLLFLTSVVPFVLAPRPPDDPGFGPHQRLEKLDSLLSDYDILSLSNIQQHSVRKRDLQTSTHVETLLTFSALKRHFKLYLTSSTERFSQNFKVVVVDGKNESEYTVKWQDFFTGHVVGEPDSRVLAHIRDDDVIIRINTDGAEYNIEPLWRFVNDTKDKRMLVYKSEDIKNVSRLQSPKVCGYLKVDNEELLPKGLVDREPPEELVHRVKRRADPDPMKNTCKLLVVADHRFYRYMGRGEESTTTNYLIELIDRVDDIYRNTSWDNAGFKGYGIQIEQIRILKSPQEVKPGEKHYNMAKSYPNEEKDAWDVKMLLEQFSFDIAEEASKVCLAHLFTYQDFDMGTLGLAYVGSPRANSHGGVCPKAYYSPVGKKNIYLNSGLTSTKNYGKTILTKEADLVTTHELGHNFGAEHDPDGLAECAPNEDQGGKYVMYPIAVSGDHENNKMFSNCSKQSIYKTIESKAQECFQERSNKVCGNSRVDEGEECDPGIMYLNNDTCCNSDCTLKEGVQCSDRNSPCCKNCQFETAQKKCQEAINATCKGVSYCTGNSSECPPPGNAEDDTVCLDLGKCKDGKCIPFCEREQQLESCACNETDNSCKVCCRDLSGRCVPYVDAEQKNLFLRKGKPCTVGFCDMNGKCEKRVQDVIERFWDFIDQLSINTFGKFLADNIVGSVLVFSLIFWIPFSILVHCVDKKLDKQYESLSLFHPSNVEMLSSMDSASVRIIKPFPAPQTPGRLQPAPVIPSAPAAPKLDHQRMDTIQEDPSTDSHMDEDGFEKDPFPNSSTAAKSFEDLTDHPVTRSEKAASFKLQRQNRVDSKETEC

[4] = biological target: Nuclear receptor subfamily 0 group B member 1 (Homo sapiens, UniProt P51843); assay type: functional, cell-based;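 also: HEK293T cells transfected with SF-1 and DAX-1 plus StAR promoter luciferase reporter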
Chain of Nuclear receptor subfamily 0 group B member 1 (P51843 whole entry): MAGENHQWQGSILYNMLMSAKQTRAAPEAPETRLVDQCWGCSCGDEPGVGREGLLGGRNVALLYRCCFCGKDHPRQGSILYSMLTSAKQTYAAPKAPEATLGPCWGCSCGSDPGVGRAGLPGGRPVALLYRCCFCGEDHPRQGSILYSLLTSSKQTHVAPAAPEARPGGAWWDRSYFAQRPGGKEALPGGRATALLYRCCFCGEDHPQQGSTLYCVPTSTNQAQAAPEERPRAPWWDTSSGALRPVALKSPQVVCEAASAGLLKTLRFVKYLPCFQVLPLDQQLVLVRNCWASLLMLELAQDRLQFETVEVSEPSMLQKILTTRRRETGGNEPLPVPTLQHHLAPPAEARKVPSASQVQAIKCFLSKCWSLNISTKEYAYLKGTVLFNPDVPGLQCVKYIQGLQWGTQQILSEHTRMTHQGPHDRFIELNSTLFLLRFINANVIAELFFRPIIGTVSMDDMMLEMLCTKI

cells = assay type: functional, cell-based
[5] = biological target: T1, Rac GTPase-activating protein 1 (Homo sapiens, UniProt Q9H0H5); assay: blockers of MgcRacGAP-driven Rac1 GTP hydrolysis – biochemical, ADP Hunter fluorescence, primary and confirmatory, confirmation (AID 624330); assay type: functional
T1 sequence (Q9H0H5 whole entry): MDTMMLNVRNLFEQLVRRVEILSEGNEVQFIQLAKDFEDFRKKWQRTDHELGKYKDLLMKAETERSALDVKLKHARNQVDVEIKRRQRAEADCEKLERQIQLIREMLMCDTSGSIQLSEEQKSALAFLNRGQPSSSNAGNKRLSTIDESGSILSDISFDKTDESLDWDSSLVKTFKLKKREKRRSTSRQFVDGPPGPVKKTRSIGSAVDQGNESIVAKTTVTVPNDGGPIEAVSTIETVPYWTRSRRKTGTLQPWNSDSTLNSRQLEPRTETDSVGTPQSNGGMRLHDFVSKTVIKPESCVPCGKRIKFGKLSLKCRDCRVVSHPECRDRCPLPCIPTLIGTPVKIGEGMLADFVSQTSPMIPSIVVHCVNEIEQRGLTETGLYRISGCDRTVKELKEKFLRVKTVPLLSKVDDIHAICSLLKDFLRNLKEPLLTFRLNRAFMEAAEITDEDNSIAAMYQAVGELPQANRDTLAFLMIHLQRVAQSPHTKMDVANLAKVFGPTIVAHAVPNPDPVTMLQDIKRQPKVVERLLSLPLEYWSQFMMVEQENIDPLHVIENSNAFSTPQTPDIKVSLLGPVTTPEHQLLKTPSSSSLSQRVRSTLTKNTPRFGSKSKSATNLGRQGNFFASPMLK

[6] = biological target: T2, Sentrin-specific protease 1 (Homo sapiens, UniProt Q9P0U3); assay: SENP1 catalytic domain blockers, concentration series – biochemical, kinetic FRET, dose response (AID 651697); assay type: functional; details: read-out: IC50_Mean
T2 sequence (Q9P0U3 whole entry): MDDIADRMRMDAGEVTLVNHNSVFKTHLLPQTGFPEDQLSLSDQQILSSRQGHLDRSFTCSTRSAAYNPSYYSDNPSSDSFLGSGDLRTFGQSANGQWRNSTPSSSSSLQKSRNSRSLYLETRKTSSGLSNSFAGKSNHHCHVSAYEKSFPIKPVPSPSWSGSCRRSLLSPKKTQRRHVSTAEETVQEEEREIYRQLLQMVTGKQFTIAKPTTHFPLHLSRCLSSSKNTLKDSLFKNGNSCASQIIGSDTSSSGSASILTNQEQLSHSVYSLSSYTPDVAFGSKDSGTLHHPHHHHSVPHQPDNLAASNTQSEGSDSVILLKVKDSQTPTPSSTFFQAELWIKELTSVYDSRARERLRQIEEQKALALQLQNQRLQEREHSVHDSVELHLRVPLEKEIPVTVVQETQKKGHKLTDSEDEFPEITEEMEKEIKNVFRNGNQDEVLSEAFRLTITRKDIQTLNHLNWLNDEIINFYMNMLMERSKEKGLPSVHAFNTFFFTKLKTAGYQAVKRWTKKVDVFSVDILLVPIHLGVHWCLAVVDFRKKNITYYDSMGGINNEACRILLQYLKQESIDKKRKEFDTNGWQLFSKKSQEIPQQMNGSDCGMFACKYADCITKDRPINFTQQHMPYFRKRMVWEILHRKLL

Large T antigen = Large T antigen (Simian virus 40, UniProt P03070); assay type: functional, Betapolyomavirus macacae;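 also: Confirmatory-stage PubChem screen for compounds that inhibit SV40 T antigen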
Chain of Large T antigen (P03070 whole entry, the tested form may be a part): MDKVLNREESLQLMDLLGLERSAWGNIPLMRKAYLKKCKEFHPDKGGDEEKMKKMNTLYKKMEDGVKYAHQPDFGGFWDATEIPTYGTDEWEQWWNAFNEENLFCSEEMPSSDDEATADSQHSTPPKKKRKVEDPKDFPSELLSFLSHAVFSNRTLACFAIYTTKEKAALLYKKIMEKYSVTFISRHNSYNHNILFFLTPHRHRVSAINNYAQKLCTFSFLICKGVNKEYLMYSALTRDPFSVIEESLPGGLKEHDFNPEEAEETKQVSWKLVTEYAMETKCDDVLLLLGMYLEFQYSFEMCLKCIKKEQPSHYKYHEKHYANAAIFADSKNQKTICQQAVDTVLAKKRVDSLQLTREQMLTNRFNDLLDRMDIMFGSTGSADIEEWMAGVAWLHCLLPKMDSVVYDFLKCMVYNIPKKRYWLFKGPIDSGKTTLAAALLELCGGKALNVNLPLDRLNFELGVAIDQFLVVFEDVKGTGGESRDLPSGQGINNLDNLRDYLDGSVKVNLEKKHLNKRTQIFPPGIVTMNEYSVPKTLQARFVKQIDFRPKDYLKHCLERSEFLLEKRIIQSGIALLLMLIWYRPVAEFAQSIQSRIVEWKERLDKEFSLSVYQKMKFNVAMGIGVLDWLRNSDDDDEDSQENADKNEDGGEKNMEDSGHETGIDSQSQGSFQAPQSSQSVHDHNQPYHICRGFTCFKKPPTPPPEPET

[7] = biological target: T2, Sentrin-specific protease 1; assay: Dose response confirmation of small molecule inhibitors of the catalytic domain of the SUMO protease, SENP1 in a FRET assay.; assay type: functional; details: read-out: IC50_Mean
[8] = biological target: Intestinal-type alkaline phosphatase (Mus musculus, UniProt P24822); assay: PubChem AID 488785; assay type: functional
Chain of Intestinal-type alkaline phosphatase (Mus musculus, UniProt P24822) (P24822 whole entry): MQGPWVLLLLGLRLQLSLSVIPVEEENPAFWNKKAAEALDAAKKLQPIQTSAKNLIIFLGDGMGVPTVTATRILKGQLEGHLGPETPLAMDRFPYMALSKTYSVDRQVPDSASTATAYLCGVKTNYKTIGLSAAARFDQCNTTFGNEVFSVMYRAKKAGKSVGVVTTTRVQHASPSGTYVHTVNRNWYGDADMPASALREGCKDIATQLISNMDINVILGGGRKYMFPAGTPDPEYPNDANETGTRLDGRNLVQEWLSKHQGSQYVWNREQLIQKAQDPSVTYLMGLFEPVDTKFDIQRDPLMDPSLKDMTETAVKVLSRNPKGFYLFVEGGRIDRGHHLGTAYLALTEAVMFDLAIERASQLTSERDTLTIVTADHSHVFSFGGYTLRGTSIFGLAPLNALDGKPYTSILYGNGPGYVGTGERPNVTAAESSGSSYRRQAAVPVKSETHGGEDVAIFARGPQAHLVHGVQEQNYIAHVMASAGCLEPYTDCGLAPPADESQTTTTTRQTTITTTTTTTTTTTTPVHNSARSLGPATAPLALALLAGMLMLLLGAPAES

[9] = biological target: Intestinal-type alkaline phosphatase (Homo sapiens, UniProt P09923); assay: inhibition of human intestinal alkaline phosphatase – biochemical, dose response (AID 488876); assay type: functional
Chain of Intestinal-type alkaline phosphatase (Homo sapiens, UniProt P09923) (P09923 whole entry): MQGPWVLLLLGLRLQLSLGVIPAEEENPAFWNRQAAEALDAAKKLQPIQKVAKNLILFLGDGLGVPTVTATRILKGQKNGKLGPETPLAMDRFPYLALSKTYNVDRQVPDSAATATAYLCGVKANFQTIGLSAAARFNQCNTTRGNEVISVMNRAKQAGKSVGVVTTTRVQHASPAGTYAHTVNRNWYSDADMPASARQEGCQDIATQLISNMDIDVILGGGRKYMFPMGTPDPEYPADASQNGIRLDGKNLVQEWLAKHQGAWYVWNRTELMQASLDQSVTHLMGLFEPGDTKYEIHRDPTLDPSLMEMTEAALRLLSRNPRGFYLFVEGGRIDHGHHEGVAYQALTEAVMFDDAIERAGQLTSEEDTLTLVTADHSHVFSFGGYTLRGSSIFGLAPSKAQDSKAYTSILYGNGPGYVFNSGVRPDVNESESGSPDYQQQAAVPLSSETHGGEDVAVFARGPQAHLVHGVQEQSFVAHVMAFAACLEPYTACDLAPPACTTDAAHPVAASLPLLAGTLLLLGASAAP

[10] = biological target: T3, Histone-lysine N-methyltransferase NSD2 (Homo sapiens, UniProt O96028); assay type: biochemical
T3 sequence (O96028 whole entry): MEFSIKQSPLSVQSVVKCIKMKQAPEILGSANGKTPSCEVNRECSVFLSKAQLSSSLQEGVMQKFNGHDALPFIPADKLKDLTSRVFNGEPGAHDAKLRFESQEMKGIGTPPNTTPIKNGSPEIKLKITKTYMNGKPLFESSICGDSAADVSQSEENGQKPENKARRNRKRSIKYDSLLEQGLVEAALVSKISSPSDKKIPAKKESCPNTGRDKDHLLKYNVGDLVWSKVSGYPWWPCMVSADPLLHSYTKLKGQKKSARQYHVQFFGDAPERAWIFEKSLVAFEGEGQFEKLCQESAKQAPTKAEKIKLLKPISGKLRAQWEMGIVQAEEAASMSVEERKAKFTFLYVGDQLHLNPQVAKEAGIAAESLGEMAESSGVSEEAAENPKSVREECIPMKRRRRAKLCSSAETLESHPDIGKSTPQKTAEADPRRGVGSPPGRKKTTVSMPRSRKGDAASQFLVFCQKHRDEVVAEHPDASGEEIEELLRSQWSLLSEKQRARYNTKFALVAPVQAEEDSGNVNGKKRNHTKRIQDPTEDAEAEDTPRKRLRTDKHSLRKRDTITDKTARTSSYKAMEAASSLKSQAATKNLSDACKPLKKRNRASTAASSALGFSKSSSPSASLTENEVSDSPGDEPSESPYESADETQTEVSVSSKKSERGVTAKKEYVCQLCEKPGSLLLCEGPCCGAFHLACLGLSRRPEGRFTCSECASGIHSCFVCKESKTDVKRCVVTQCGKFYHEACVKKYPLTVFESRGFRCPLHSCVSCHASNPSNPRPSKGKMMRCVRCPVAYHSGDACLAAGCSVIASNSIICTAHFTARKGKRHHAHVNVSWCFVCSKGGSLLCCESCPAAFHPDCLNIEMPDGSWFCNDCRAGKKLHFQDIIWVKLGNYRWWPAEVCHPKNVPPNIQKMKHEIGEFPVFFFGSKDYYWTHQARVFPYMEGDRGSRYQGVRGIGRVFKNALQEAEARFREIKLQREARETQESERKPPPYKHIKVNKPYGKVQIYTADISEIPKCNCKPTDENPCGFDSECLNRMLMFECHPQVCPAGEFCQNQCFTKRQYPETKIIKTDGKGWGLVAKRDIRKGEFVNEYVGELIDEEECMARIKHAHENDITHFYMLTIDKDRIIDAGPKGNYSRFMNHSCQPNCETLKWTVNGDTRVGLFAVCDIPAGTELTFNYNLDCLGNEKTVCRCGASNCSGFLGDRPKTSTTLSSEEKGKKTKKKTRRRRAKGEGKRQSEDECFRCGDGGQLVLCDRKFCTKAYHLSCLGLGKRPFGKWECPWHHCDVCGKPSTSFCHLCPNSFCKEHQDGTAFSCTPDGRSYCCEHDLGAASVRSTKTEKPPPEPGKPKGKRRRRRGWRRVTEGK

[11] = biological target: T4, RNA-binding protein pos-1 (Caenorhabditis elegans, UniProt G5EF15); assay: disruptors of C. elegans POS-1 RNA interaction – biochemical, fluorescence polarization, dose response (AID 1964);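 also: purified POS-1 fused to maltose binding protein made in E. coli; potency of compounds blocking POS-1 binding to fluorescent RNA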
T4 sequence (G5EF15 whole entry): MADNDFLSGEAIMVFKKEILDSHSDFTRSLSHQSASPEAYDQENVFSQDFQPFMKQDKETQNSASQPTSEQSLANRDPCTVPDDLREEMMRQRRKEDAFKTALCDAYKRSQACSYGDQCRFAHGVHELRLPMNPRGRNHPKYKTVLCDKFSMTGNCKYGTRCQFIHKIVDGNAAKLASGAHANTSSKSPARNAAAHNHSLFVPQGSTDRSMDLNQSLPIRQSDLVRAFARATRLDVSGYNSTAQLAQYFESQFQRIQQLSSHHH

[12] = biological target: T5, Alkaline phosphatase, tissue-nonspecific isozyme (Homo sapiens, UniProt P05186); assay: TNAP enzyme inhibition by screening hits, dose response, selectivity assay for mouse IAP inhibitor project, biochemical, human TNAP, uHTS hits (AID 488906); assay type: functional
T5 sequence (P05186 whole entry): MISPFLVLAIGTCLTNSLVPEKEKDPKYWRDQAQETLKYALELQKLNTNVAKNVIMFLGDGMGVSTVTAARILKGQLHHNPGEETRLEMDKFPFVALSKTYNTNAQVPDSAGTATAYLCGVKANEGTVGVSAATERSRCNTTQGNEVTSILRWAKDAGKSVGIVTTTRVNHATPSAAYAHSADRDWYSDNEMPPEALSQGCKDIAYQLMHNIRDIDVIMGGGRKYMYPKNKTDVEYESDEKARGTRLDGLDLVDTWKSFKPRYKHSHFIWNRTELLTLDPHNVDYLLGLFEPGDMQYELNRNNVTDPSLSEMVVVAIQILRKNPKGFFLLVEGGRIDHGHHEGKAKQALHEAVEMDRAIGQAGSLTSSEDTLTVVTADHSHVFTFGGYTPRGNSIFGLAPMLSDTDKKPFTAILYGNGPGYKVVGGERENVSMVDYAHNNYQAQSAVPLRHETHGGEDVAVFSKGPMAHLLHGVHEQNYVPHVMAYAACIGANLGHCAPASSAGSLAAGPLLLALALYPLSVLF

[13] = biological target: T6, Zinc finger protein mex-5 (Caenorhabditis elegans, UniProt Q9XUB2); assay: potency of MEX-5 RNA-binding blockers – biochemical, C. elegans, fluorescence polarization, dose response (AID 1960)
T6 sequence (Q9XUB2 whole entry): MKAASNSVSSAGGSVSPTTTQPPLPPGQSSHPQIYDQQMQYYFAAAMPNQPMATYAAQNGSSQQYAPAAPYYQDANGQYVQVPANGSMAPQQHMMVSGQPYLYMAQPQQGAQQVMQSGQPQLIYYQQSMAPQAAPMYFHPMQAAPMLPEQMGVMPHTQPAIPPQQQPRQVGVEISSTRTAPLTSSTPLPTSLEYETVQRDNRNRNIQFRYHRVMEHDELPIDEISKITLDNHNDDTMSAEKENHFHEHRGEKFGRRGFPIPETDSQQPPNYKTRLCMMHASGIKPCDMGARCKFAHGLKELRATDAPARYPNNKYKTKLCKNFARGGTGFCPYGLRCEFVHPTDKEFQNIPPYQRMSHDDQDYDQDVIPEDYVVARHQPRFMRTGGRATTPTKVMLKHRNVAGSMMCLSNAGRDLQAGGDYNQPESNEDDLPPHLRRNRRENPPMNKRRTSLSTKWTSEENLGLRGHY

[14] = biological target: 1-phosphatidylinositol 4,5-bisphosphate phosphodiesterase beta-3 (Homo sapiens, UniProt Q01970); assay: Fluorescence-based biochemical high throughput dose response assay to identify inhibitors of phospholipase C isozymes (PLC-B3).
Chain of 1-phosphatidylinositol 4,5-bisphosphate phosphodiesterase beta-3 (Q01970 whole entry): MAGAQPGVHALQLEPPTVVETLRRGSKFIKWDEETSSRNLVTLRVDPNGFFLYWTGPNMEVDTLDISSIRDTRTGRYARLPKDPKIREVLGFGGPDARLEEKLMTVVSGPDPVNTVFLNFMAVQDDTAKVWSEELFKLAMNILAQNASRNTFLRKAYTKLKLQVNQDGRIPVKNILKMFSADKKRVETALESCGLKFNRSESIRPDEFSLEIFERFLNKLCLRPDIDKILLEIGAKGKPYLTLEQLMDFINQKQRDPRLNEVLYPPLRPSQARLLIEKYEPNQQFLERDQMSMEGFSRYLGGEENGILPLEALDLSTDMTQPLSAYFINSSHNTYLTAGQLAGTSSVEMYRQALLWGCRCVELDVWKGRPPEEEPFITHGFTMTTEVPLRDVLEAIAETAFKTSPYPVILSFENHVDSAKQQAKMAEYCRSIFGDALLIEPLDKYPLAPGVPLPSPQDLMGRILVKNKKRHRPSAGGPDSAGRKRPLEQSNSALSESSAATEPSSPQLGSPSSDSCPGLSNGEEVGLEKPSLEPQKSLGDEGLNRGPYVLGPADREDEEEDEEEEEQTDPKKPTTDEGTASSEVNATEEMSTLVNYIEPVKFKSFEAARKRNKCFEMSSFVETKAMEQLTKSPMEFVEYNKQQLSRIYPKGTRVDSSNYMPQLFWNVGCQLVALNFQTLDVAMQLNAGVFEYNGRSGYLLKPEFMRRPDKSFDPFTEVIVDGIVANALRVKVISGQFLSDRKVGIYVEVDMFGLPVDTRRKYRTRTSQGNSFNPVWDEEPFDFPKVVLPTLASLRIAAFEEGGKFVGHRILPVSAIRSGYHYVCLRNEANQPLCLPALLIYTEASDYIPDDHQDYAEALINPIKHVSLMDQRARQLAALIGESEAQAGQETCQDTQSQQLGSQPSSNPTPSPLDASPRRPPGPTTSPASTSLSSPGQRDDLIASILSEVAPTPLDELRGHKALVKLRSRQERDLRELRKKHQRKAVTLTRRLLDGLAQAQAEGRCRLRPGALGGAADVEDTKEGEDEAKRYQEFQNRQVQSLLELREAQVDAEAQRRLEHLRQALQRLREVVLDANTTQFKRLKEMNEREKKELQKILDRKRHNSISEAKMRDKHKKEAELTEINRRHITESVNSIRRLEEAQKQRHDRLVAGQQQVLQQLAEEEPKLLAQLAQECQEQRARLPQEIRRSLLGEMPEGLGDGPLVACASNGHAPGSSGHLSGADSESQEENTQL

[15] = biological target: 1-phosphatidylinositol 4,5-bisphosphate phosphodiesterase gamma-1 (Homo sapiens, UniProt P19174); assay: Counterscreen for inhibitors of phospholipase C isozymes (PLC-B3): Fluorescence-based biochemical high throughput dose response assay to identify inhibitors of phospholipase C isozymes (PLC-gamma1).
[16] = off-target signal loss in HeLa-CEM21 co-culture – HeLa F-luc CTL cells, cherry-picked, counter-screen for HIV-1 Env fusion inhibitor project, dose response (AID 652040); assay type: functional, cell-based;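 also: potency for signal decrease marking cytotoxic or nonspecific inhibition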
[17] = viability loss in CEM21 cells – cell-based, CellTiter-Glo luminescence, cherry-picked, cytotoxicity control for viral fusion inhibitor project, dose response (AID 652042); assay type: functional;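 also: potency for signal decrease meaning cytotoxicity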
[18] = blockers of HIV-1 ZM109 envelope-driven cell-cell fusion – HeLa effector, CEM target cells, luciferase, cherry-pick, dose response (AID 652058); assay type: functional, cell-based;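 also: luciferase signal from HIV-1 Env mediated cell-cell fusion of effector and target cells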
[19] = HIV-1 AD8 envelope cell-cell fusion blockers – cherry-pick, dose response (AID 652062); assay type: functional, cell-based;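 also: luciferase signal from cell-cell fusion driven by HIV-1 clade B AD8 Env; potency is for inhibitors of fusion seen as a drop in luminescence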
[20] = blockers of HIV-1 envelope-mediated cell-cell fusion – cherry-pick, dose response (AID 652057); assay type: functional, cell-based

O=C(Nc1ccccc1)C1=C[C@@H](C2CCCCC2)C[C@@H](OCc2ccc(CO)cc2)O1
IC50 [1]: 21.8 µM (inactive) | CC50 [2]: > 40 µM (active) | IC50 [3]: > 69.5 µM (inactive)

COc1ccc(C(=O)CSc2nccn2C)c(OC)c1
IC50 [4]: > 67.5 µM (inactive) | IC50 (cells): > 67.5 µM (inactive)

COc1ccccc1NC(CC(=O)c1ccccc1)C(=O)OCC(=O)c1ccc(Br)cc1 (centres undefined)
IC50 [4]: > 0.278 µM (active) | IC50 (cells): > 67.5 µM (inactive)

CCOc1cc(/C=C2\SC(=O)N=C2N)ccc1O
IC50 [5]: 13 µM (active) | IC50 [6]: 10.9 µM (active) | IC50 (Large T antigen): 4.73 µM (active) | IC50 [7]: 18.2 µM (active)

CC(OC(=O)CCCCCN=C1NS(=O)(=O)c2ccccc21)C(=O)Nc1cc(Cl)cc(Cl)c1 (centres undefined)
IC50 [3]: > 69.5 µM (inactive)

CC(OC(=O)CCCCCNC1=NS(=O)(=O)c2ccccc21)C(=O)Nc1cc(Cl)cc(Cl)c1 (centres undefined)
IC50 [1]: 50 µM (inactive)

O=C(/C=C/c1ccco1)NC(=S)Nc1ccc(C(=O)O)cc1
IC50 [5]: 147 µM (active) | IC50 [8]: 2.97 µM (active) | IC50 [9]: 21.8 µM (active) | AC50 [10]: 13 µM (active) | EC50 [11]: 8.75 µM (active) | IC50 [12]: 45 µM (active) | EC50 [13]: 12.8 µM (active) | IC50 [14]: > 122 µM (inactive) | IC50 [15]: > 122 µM (inactive)

O=[N+]([O-])c1ccc(C=NNc2ccccc2)cc1
IC50 [6]: 21.5 µM (inactive) | IC50 [7]: 7.2 µM (active)

CC1(C)Cc2ccccc2C(/C(=N\Nc2cccc(Cl)c2)C(N)=O)=N1
AC50 [16]: 35.5 µM (active) | AC50 [17]: 49.5 µM (active) | AC50 [18]: 2.69 µM (active) | AC50 [19]: 8.02 µM (active) | AC50 [20]: 2.68 µM (active)
